Assay results reported in patent US20210379046A1, “Methods of Treating Diseases Using Kinase Modulators” (Memorial Sloan Kettering Cancer Center, priority 2018, published 2021).

Experiments:
[1] = tested on: SUP-M2 cells; assay: PD-L1 levels in vitro on SUP-M2 cells
Procedure: 5×10^4 cells were seeded in a 12 well plate and treated with drug for 72 hrs. Adherent cells were seeded one day before treatment. At 72 hrs, cells were harvested, washed with PBS and incubated on ice with appropriate fluorophore conjugated antibodies diluted in FACS buffer for 1 hr. Gating strategy: Cells were then washed and incubated 30 min with a viability dye (propidium iodide at 1 ug/mL) and live cells only were analyzed by on a Guava flow cytometer with FlowJo software.

[2] = tested on: Karpas 299 cells; assay: Flow cytometry of cell surface HLA and checkpoint ligands on Karpas 299 cells; format: cell-based, human
Procedure: (§1) If adherent cells, they were seeded one day before treatment.

[3] = tested on: pERK in SUDHL-1 cells; assay: Western blot of pERK in SUDHL-1 cells; format: cell-based, human; conditions: SUDHL-1, 3 hrs
Procedure: (§2) Cells were seeded in a 60 mm dish or 6 well plates. After the appropriate time point, cells were harvested and lysed and protein was quantified by a Lowry assay (Bio-Rad DC Protein Assay; #5000116). Protein levels were normalized and run on SDS PAGE gels (Bio-Rad). Protein was transferred to a nitrocellulose membrane using semi-dry transfer. Membrane was blocked and incubated with respective antibodies. When needed, secondary antibodies with HRP were incubated for 1 hr.
(§3) Cells were seeded in a 60 mm dish or 6 well plates. After the appropriate time point, cells were harvested, lysed in RIPA buffer (Thermo Instruments) and protein concentration was quantified by a Lowry assay (using the Bio-Rad DC Protein Assay; #5000116 on a Spectramax device from Molecular Devices). Protein loading levels were equalized per lane and separated on SDS gels (Bio-Rad). Protein was transferred to a nitrocellulose membrance using semi-dry transfer (BioRad). Membranes were blocked with Omniblock (American Bio) and incubated with respected antibodies. When needed, secondary antibodies with HRP were incubated for 1 hr.

[4] = tested on: SUDHL-1 cells; assay: Flow cytometry of cell surface HLA on SUDHL-1 cells; format: cell-based, human; conditions: SUDHL-1, 72 hrs, increasing concentrations
Procedure: as §1

[5] = tested on: Karpas299 cells; assay: Luminex cytokine secretion, Karpas299 cells; format: cell-based, human; conditions: Karpas299, 100 nm alectinib
Procedure: Supernatant media were harvested after treatment and analyzed by the Luminex device (Luminex Corporation, Austin, Tex.) for relevant cytokine secretion. […] On the left side of each panel is data after 24 hours. On the right side of each panel is data after 48 hours. […] The data points shown in this figure are in pairs for each condition. The data point pairs for each time point are, from left to right: DMSO, Rux, Alec, IFNg, and IFNg+Rux.

[6] = tested on: Karpas 299 tumors; assay: Karpas 299 subcutaneous tumors in mice, tumor HLA and PD-L1 by flow cytometry; format: in vivo
Procedure: Female NSG (NOD.Cg-Prkdc^scidIl2rg^tm1Wj1/SzJ) and NRG (NOD.Cg-Rag1^tm1MomIl2rg^tm1Wj1/SzJ) mice were purchased from the Jackson Laboratory or MSKCC breeding facility at 5-10 weeks old. For RET and ALK experiments, 2.5-6×10^6 tumor cells were subcutaneously injected into the flank of mice and when tumors were palpable, mice were treated daily with drug or vehicles through oral gavage. At day 7, tumors were harvested and flow cytometry was run to determine effect of inhibitors on HLA and PD-L1 on the tumor cells.
The highly immunodeficient NRG (NOD-Rag1null IL2rgnull) mice were subcutaneously injected with 2.5×10^6 luciferase tagged TPC1 cells in their right flank. […] Afterwards, cells were immediately harvested and stained with antibodies against HLA-A*02:01 and HLA-ABC.
All animal experiments were conducted in accordance with and the approval of the MSKCC IACUC (Institutional Animal Care and Use Committee) protocols. Female NSG (NOD. Cg-Prkdc^scidIl2rg^tm1Wj1/SzJ) and NRG (NOD.Cg-Rag1^tm1MomIl2rg^tm1Wj1/SzJ) mice were purchased from the Jackson Laboratory at 5-10 weeks old. For experiments in vivo with RET and ALK, 2.5-6×10^6 tumor cells in PBS were subcutaneously injected into the flank of mice. When tumors were palpable (2-3 mm), mice were treated daily with drugs or vehicles through oral gavage of drugs in 200 ul of water. At day 4 or 7, tumors were harvested and flow cytometry was conducted to determine the effect of inhibitors on HLA and PD-L1 on the tumor cells. […] TPC1 cells were transduced with luciferase and GFP on an SFG vector and this allowed gating of the tumor cells in flow cytometry.

[7] = tested on: pERK in Karpas 299 cells; assay: Western blot of pERK in Karpas 299 cells; format: cell-based, human; conditions: Karpas 299, 3 hrs
Procedure: as §2, §3

[8] = tested on: TPC1 cells; assay: RNA-seq of TPC1 cells after RET inhibitor treatment; format: cell-based, human; conditions: TPC1, 72 hours
Procedure: Purified polyA mRNA was subsequently fragmented, and first and second strand cDNA synthesis performed using standard Illumina mRNA TruSeq library preparation protocols. Double stranded cDNA was subsequently processed for TruSeq dual-index Illumina library generation. For sequencing, pooled multiplexed libraries were run on a HiSeq 2500 machine on RAPID mode. Approximately 10 million 76 bp single-end reads were retrieved per replicate condition. Resulting RNA-Seq data was analyzed by removing adaptor sequences using Trimmomatic, aligning sequencing data to GRCh37.75(hg19) with STAR, and genome wide transcript counting using HTSeq to generate a RPKM matrix of transcript counts. This RPKM matrix was further log (log 2) transformed and normalized per gene to obtain the Z-score. Differential gene expression was analyzed by looking at fold changes between experimental conditions.

[9] = tested on: TPC1 cells; assay: Flow cytometry of cell surface HLA and checkpoint ligands on TPC1 cells; format: cell-based, human; conditions: TPC1, 100 nM, 72 hours
Procedure: as §1

[10] = tested on: TPC1 cells; assay: Mass spectrometry of eluted HLA class I presented peptides, TPC1 cells; format: cell-based, human
Procedure: After 72 hrs, cells were harvested, washed, lysed. The lysate was run through an activated Sepharose-CNBr column coupled to the W6/32 antibody to bind HLA-A,B,C from the cell. The peptides bound by those HLAs and captured on the column were then eluted and mass spectrometry was run on those peptides.
Immunopurification affinity columns were prepared as described previously (Bassani-Sternberg et al., 2015, Mol Cell Proteomics 14(3):658-673). In brief, 40 mg of Cyanogen bromide-activated-Sepharose® 4B (Sigma-Aldrich, Cat #C9142) was activated with 1 mM hydrochloric acid (Sigma-Aldrich, Cat #320331) for 30 min. Subsequently, 0.5 mg of W6/32 antibody (BioXCell, BE0079; RRID: AB 1107730) was coupled to sepharose in presence of binding buffer (150 mM sodium chloride, 50 mM sodium bicarbonate, pH 8.3; sodium chloride: Sigma-Aldrich, Cat #S9888, sodium bicarbonate: Sigma-Aldrich, Cat #56014) for at least 2 hours at room temperature. Sepharose was blocked for 1 h with glycine (Sigma-Aldrich, Cat #410225). Columns were equilibrated with PBS for 10 min. […]. Afterwards, cells were lysed in 1 ml 1% CHAPS (Sigma-Aldrich, Cat #C3023) in PBS, supplemented with 1 tablet of protease inhibitors (cOmplete, Cat #11836145001) for 1 hour at 4° C. This lysate was spun down for 1 hour at 20,000 g at 4° C. Supernatant was run over the affinity column through peristaltic pumps at 1 ml/min overnight at 4° C. Affinity columns were washed with PBS for 15 min, run dry, and HLA complexes subsequently eluted three times with 200 μl 1% trifluoracetic acid (TFA, Sigma/Aldrich, Cat #02031). For separation of HLA ligands from their HLA complexes tC18 columns (Sep-Pak tC18 1 cc VacCartridge, 100 mg Sorbent per Cartridge, 37-55 μm Particle Size, Waters, Cat #WAT036820) were prewashed with 80% acetonitrile (ACN, Sigma-Aldrich, Cat #34998) in 0.1% TFA and equilibrated with two washes of 0.1% TFA. Samples were loaded, washed again with 0.1% TFA and eluted in 400 μl 30% ACN in 0.1% TFA. Sample volume was reduced by vacuum centrifugation for mass spectrometry analysis.
Samples were analyzed by a high resolution/high accuracy LC-MS/MS (Lumos Fusion, Thermo Fisher). Peptides were desalted using ZipTips (Sigma Millipore, Cat. #ZTC18S008) according to manufactures instructions and concentrated using vacuum centrifugation prior to being separated using direct loading onto a packedin-emitter C18 column (75 um ID/12 cm, 3 μm particles, Nikkyo Technos Co., Ltd. Japan). The gradient was delivered at 300 nl/min increasing linear from 2% Buffer B (0.1% formic acid in 80% acetonitrile)/98% Buffer A (0.1% formic acid) to 30% Buffer B/70% Buffer A, over 70 minutes. MS and MS/MS were operated at resolutions of 60,000 and 30,000, respectively. Only charge states 1, 2 and 3 were allowed. 1.6 Th was chosen as the isolation window and the collision energy was set at 30%. For MS/MS, the maximum injection time was 100 ms with an AGC of 50,000.
Mass spectrometry data was processed using Byonic software (version 2.7.84, Protein Metrics, PaloAlto, Calif.) through a custom-built computer server equipped with 4 Intel Xeon E5-4620 8-core CPUs operating at 2.2 GHz, and 512 GB physical memory (Exxact Corporation, Freemont, Calif.). Mass accuracy for MS1 was set to 10 ppm and to 20 ppm for MS2, respectively. Digestion specificity was defined as unspecific and only precursors with charges 1, 2, and 3 and up to 2 kDa were allowed. Protein FDR was disabled to allow complete assessment of potential peptide identifications. Oxidization of methionine, N-terminal acetylation, phosphorylation of serine, threonine and tyrosine were set as variable modifications for all samples. All samples were searched against the UniProt Human Reviewed Database (20,349 entries, uniprot.org, downloaded June 2017). […]

[11] = Karpas 299 tumors, daily oral gavage
[12] = TPC1, 10 nM AST487 or 100 nM cabozantinib

Question: Which results are given for `CCc1cc2c(cc1N1CCC(N3CCOCC3)CC1)C(C)(C)c1[nH]c3cc(C#N)ccc3c1C2=O` [alectinib]?
Answer: PD-L1 levels in vitro [1]: dramatic decreases in PD-L1 were seen in vitro; PD-L1 levels in vitro ([2]; Karpas 299): dramatic decreases in PD-L1 were seen in vitro; surface HLA-E levels ([2]; Karpas 299): did not change; cell surface HLA-A,B,C ([2]; Karpas 299, 72 hrs, increasing concentrations): upregulates cell surface HLA; HLA-A02 (BB7-FITC) surface level ([2]; Karpas299, alectinib 100 nM, 72 hours): led to upregulation of HLA; pERK levels [3]: shut down pERK expression; cell surface HLA-A,B,C [4]: upregulates cell surface HLA; IFNα, IFNγ, IL4 secretion [5]: had no effect on IFNα, IFNγ, IL4; IL6 and TNFα secretion [5]: reduced IL6 and TNFα secretion; drop of PD-L1 ([6]; Karpas 299 tumors in NSG mice): approximately 75%; tumor PD-L1 levels in vivo [6, 11]: PD-L1 decreased with increasing doses; tumor cell surface HLA-A,B,C in vivo [6, 11]: increased modestly in a dose-dependent manner; pERK levels [7]: shut down pERK expression

Question: Which results are given for `COc1cc2nccc(Oc3ccc(NC(=O)C4(C(=O)Nc5ccc(F)cc5)CC4)cc3)c2cc1OC` [cabozantinib]?
Answer: genes upregulated at least two-fold [8]: 50; increase in surface HLA (pan-HLA) [9]: ~4 fold; increase in surface HLA-A*02 [9]: 4 fold; runs TEIPP peptide was found in (n = 3) ([10]; ALFSFVTAL (SEQ ID NO: 11)): 0; runs TEIPP peptide was found in (n = 3) ([10]; FLGPWPAAS (SEQ ID NO: 12)): 1; runs TEIPP peptide was found in (n = 3) ([10]; FLSELQYYL (SEQ ID NO: 13)): 0; runs TEIPP peptide was found in (n = 3) ([10]; FLYPFLSHL (SEQ ID NO: 14)): 0; runs TEIPP peptide was found in (n = 3) ([10]; ILEYLTAEV (SEQ ID NO: 15)): 0; runs TEIPP peptide was found in (n = 3) ([10]; LLALAAGLAV (SEQ ID NO: 16)): 0; runs TEIPP peptide was found in (n = 3) ([10]; LLLDVPTAAV (SEQ ID NO: 17)): 1; runs TEIPP peptide was found in (n = 3) ([10]; LLLSAEPVPA (SEQ ID NO: 18)): 0; runs TEIPP peptide was found in (n = 3) ([10]; LLWGRQLFA (SEQ ID NO: 19)): 0; runs TEIPP peptide was found in (n = 3) ([10]; LSEKLERI (SEQ ID NO: 20)): 0; runs TEIPP peptide was found in (n = 3) ([10]; LTLLGTLWGA (SEQ ID NO: 21)): 0; runs TEIPP peptide was found in (n = 3) ([10]; SVLWLGALGL (SEQ ID NO: 22)): 0; runs TEIPP peptide was found in (n = 3) ([10]; TLLGASLPA (SEQ ID NO: 23)): 0; new peptides (only peptides found in all three runs counted) [10, 12]: 492; unique peptides not present in the DMSO group (found in at least one run) [10, 12]: 1642; unique ligands presented ([10]; TPC1, 10 nM AST487 or 100 nM cabozantinib, three runs pooled, DMSO 4211): 4850; increase in unique peptides vs DMSO ([10]; TPC1, three runs pooled): 15%; unique HLA ligands detected in all 3 runs ([10]; TPC1, DMSO 195): 639; runs TEIPP peptide was found in (n = 3) ([10]; VIIKPLVWV (SEQ ID NO: 24)): 0; runs TEIPP peptide was found in (n = 3) ([10]; VLAVFIKAV (SEQ ID NO: 25)): 0; runs TEIPP peptide was found in (n = 3) ([10]; VLLDHLSLA (SEQ ID NO: 26)): 0
